Data on 2 compounds can be found in US12575768B2, “Analyte sensor antimicrobial configurations and adhesives” (Abbott Diabetes Care, Inc., priority 2018, dated 2026).

The experiment concerns gram-positive bacteria strains associated with common skin flora and wound infection. The experiment is described as follows: modified Kirby-Bauer disk diffusion assay, overall conclusion. The settings on record: conclusion from zone of inhibition measurements of Table 1. In kind it is cell-based. On the procedure: Example 3: […] Testing of Silver-Based Antimicrobial Quality. In this example, sensors membranes comprising the silver-based antimicrobial compounds of Example 2 (tested in quadruplicate for each of the sensors in Example 2) and the Control of Example 2 were evaluated […] against a variety of gram-positive bacteria strains associated with common skin flora and wound infection, and which were nosocomial-derived using a modified Kirby-Bauer disk diffusion assay for antibiotic susceptibility testing. The bacteria used for evaluation were Staphylococcus aureus (MRSA) (ATCC #33591), Staphylococcus epidermidis (ATCC #12228), Enterococcus faecalis (ATCC #4082), and Streptococcus pyogenes (ATCC #19615). Each were cultured on Tryptic Soy Agar, except for S. pyogenes, which were cultured on Blood Agar.
For orientation: A growth-free zone around the sample is the usual read-out of agar diffusion tests.

As to `[Cl][Ag]` [silver chloride], the “antimicrobial properties (in words)” value is given as “demonstrate antimicrobial properties”.
With `[Ag][I]` [silver iodide], the “antimicrobial properties (in words)” value is reported as “demonstrate antimicrobial properties”.
